In one assay the target is ASK1 (Homo sapiens (Human), UniProt Q99683). The assay is described as follows: Human ASK1 ADP-Glo kinase assay. The format is biochemical. The conditions noted are these: recombinant ASK1 (amino acids 649-946), 50 μM ATP, MBP substrate. How it is done:
Example B-1: Human ASK1 ADP-Glo Assay
The ability of test compounds to inhibit ASK1 kinase activity was determined using the luminescent ADP-Glo™ Kinase Assay and Myelin Basic Protein (MBP) as a substrate (Promega Corporation, Madison, Wis.). During the kinase reaction, ASK1 utilizes ATP and generates ADP. The remaining ATP is then depleted by addition of the ADP-Glo™ reagent which also terminates the reaction. Subsequent addition of the Kinase Detection Reagent converts the ADP that was produced during the kinase reaction to ATP, and this newly synthesized ATP is converted to light using the luciferase/luciferin reactions. The assay was performed according to the manufacturer's instructions. Briefly, purified, recombinant ASK1 (amino acids 649-946) (10-20 ng/well) was added to a 384-well, F bottom, small volume, HIbase, white plate (Greiner Bio-One, Monroe, N.C. #784075) containing 1-2 μL 5× test compound or vehicle control (diluted 1:20 from a 100% DMSO stock solution into 1× Reaction Buffer A). The enzyme was allowed to pre-incubate with test compound from 15-120 min at 30° C. before the addition of the ATP/substrate mix (final concentrations of 50 μM ATP+250 ng MBP in 1× Reaction Buffer A). The mixture was then incubated at room temperature for 40 min before the addition of ADP-Glo™ reagent and a second 40 minute room temperature incubation. Following the addition of the Kinase Detection Reagent, the plate was incubated for an additional 40 min at room temperature before reading luminescence on a FlexStation 3 (Molecular Devices, Sunnyvale, Calif.). Maximum activity was determined from wells treated with vehicle and was set to 100% and minimum activity was determined from wells containing no enzyme and this was set to 0%. Percent inhibition was calculated relative to the controls and the data graphed in Collaborative Drug Discovery (CDD) Vault (Burlingame, Calif.).
In general terms: ADP-Glo first removes unused ATP, then detects ADP through luciferase.

In another assay the target is human LOXL2 (Homo sapiens (Human), UniProt Q9Y4K0). The assay is described as follows: Human LOXL2 amine oxidase activity assay (Amplex Red). The format is biochemical. To be noted: concentrated conditioned media from CHO cells expressing human LOXL2, 2 h preincubation at 37° C., DAP substrate. How it is done:
Example B-2: Human LOXL2 Amine Oxidase Activity Assay
LOXL2 amine oxidase activity was evaluated by measuring Amplex Red fluorescence using 10-20× concentrated conditioned media from CHO cells stably expressing human LOXL2. To assay for amine oxidase activity, 10 μL of the concentrated conditioned media was incubated with 2 μL of test compound in DMSO and 73 μL Assay Buffer (50 mM Borate Buffer, pH8) for 2 h at 37° C. After the 2 h incubation, 5 μL of 10 mM 1,5-Diaminopentane (DAP) diluted in Assay Buffer and 10 μL of Amplex Red Mix (8.5 μL Assay Buffer+0.5 μL of 10 mM Amplex Red+1 μL of 500 U/ml Horseradish Peroxidase) were added and the plate mixed and immediately placed on the FlexStation for fluorescence measurements. Fluorescence was read in kinetic mode every 2 min for 0.5-1 hour at excitation=544 and emission=590. The amine oxidase activity was calculated from the slope of the linear portion of the curve. Wells containing vehicle (DMSO) represented maximum activity and were set to 0% inhibition and wells containing 100 μM βAPN (3-aminopropionitrile) represented no activity and were set to 100% inhibition.

The source of these data is US11345676B2, “Apoptosis signal-regulating kinase 1 (ASK 1) inhibitor compounds” (PHARMAKEA, INC., priority 2017, dated 2022).

Where a name gives a salt, the structure may show the parent alone.

As usually defined, the IC50 is the concentration needed to halve the response being measured.

Chain of ASK1 (Q99683 649-946): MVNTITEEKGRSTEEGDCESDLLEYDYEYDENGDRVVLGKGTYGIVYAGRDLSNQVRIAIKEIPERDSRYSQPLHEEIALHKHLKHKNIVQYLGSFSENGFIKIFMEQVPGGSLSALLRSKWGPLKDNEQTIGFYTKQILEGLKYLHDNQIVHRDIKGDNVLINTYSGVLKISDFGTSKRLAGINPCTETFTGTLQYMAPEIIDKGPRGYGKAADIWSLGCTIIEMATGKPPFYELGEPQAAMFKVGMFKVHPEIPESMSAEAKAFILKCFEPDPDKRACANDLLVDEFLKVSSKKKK
Chain of human LOXL2 (Q9Y4K0 26-774): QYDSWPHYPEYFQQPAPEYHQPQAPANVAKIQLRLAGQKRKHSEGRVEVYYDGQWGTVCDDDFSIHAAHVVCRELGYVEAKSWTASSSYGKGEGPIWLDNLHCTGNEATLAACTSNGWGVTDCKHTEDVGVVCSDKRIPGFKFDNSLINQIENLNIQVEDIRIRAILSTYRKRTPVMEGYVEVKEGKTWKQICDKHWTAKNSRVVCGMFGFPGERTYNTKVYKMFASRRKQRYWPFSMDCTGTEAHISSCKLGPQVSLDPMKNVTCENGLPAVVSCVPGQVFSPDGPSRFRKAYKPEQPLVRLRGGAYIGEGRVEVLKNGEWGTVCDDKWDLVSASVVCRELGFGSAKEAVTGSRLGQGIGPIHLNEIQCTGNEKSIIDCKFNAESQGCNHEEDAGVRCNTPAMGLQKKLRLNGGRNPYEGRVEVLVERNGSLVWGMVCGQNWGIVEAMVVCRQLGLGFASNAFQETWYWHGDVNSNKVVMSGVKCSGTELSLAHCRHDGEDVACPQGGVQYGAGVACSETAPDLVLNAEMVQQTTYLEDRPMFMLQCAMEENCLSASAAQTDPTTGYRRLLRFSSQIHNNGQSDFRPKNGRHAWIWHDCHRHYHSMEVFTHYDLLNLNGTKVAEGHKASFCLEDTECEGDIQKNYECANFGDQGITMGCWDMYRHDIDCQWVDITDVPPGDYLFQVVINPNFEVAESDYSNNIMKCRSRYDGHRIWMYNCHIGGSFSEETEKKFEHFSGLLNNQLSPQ

`CC(C)n1cnnc1-c1cccc(NC(=O)c2cc(NC(=O)c3ccc(CN)cc3)ccc2F)n1` [Compound 1-306, 5-(4-(Aminomethyl)benzamido)-2-fluoro-N-(6-(4-isopropyl-4H-1,2,4-triazol-3-yl)pyridin-2-yl)benzamide hydrochloride]: the IC50 at ASK1 is less than 300 nM; against human LOXL2 it was greater than 1000 nM. Turning to `NCc1cc(Oc2ccnc(C(=O)Nc3cccc(-c4nncn4C4CC4)n3)c2)nc(C(F)(F)F)c1` [Compound 1-330, 4-((4-(Aminomethyl)-6-(trifluoromethyl)pyridin-2-yl)oxy)-N-(6-(4-cyclopropyl-4H-1,2,4-triazol-3-yl)pyridin-2-yl)picolinamide hydrochloride], the IC50 on ASK1 and on human LOXL2 was less than 300 nM in each case.

In the case of `CC(C)n1cnnc1-c1cccc(NC(=O)c2cccc(Oc3cc(CN)cc(C(F)(F)F)n3)c2)n1` [Compound 1-331, 3-((4-(Aminomethyl)-6-(trifluoromethyl)pyridin-2-yl)oxy)-N-(6-(4-isopropyl-4H-1,2,4-triazol-3-yl)pyridin-2-yl)benzamide hydrochloride], the IC50 on ASK1 and against human LOXL2 was less than 300 nM in each case. As to `C[C@H](CO)n1cnnc1-c1cccc(NC(=O)c2cc(NCc3ccc(F)cc3)ccc2F)n1` [Compound 1-343, (R)-2-Fluoro-5-((4-fluorobenzyl)amino)-N-(6-(4-(1-hydroxypropan-2-yl)-4H-1,2,4-triazol-3-yl)pyridin-2-yl)benzamide hydrochloride], the IC50 on ASK1 is less than 300 nM.
